Here are results for eleven compounds from PubChem BioAssay (NCI).

Some test systems named below: CAKI-1 renal; COLO 205 colon; HCT-116 colon; K-562 leukemia; KM12 colon; MOLT-4 leukemia; SF-268 CNS; SF-295 CNS; UACC-62 melanoma; M14 melanoma.
What all share (assay): growth of human tumour cells (NCI), 48 h

Molecules are shown by their SMILES. Values joined by “and” are separate entries in the source; they are usually repeats but may differ in a detail not shown here. Identical values can stand only once.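 How tested: cells in 96-well plates exposed to compound for 48 hours at five concentrations. GI50: concentration for 50% inhibition of growth. At the TGI there is no net growth.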

For `COc1cc2nc3sc(C(=O)Nc4ccc(C(=O)OC(C)C)cc4)c(C(=O)Nc4ccc(Cl)cc4C)n3c(=O)c2cc1OC`, the GI50 is 26.1 µM in the experiment with CAKI-1 renal; 7.02 µM in the experiment with COLO 205 colon; 11.3 µM in the experiment with HCT-116 colon; 5.29 µM in the experiment on K-562 leukemia; 1.29 µM in the experiment with KM12 colon; 2.87 µM in the experiment with MOLT-4 leukemia. Also, the GI50 was 9.45 µM in the experiment on SF-268 CNS, 11.2 µM with SF-295 CNS and 6.8 µM in the experiment with UACC-62 melanoma. In addition, the TGI was above 100 µM in the experiment on CAKI-1 renal; 51.9 µM in the experiment on COLO 205 colon; above 100 µM in the experiment on HCT-116 colon; above 100 µM in the experiment on K-562 leukemia; 13.3 µM with KM12 colon; 18.9 µM in the experiment with MOLT-4 leukemia. The results for the TGI with SF-268 CNS, in the experiment with SF-295 CNS and in the experiment with UACC-62 melanoma were 43.3 µM, 29 µM and 91.8 µM, respectively.

For `COc1ccc(C(=O)C(c2ccc(OC)cc2)C2(O)C(=O)Nc3ccccc32)cc1` (configuration not stated), the TGI with CAKI-1 renal, in the experiment with HCT-116 colon, in the experiment on K-562 leukemia, in the experiment on KM12 colon, in the experiment with M14 melanoma and with MOLT-4 leukemia was above 100 µM in each case. Also, the TGI with SF-268 CNS, in the experiment with SF-295 CNS and in the experiment with UACC-62 melanoma was above 100 µM throughout.

For the compound `O=C(O)C(CP(=O)(O)O)=C(Cl)Cl`, the TGI in the experiment on COLO 205 colon, in the experiment on HCT-116 colon, in the experiment with MOLT-4 leukemia, in the experiment with SF-268 CNS, with SF-295 CNS and in the experiment on UACC-62 melanoma was above 100 µM each time.

Consider `O=S1c2ccccc2N=C(c2ccc3ccccc3c2)CC1C1=CC=CCC1` (configuration not stated), for which the TGI amounted to 29.6 µM with CAKI-1 renal; 37.9 µM in the experiment on COLO 205 colon; 27.4 µM with K-562 leukemia; 32.2 µM with KM12 colon; 35.6 µM in the experiment with M14 melanoma; 40.5 µM in the experiment with MOLT-4 leukemia. Moreover, the TGI in the experiment with SF-268 CNS is above 100 µM; in the experiment on SF-295 CNS it was 39.6 µM; in the experiment with UACC-62 melanoma it was 34.5 µM.

Take `COc1ccccc1OCC(=O)Nc1sc2c(c1C(N)=O)CCC2`: the GI50 with CAKI-1 renal, in the experiment on COLO 205 colon, with HCT-116 colon, in the experiment on K-562 leukemia, in the experiment on KM12 colon and with M14 melanoma was above 100 µM in each case. For the same compound, the GI50 in the experiment on MOLT-4 leukemia was above 100 µM; with SF-268 CNS, above 100 µM; in the experiment on UACC-62 melanoma, 38.1 µM. Further, the TGI in the experiment on CAKI-1 renal, in the experiment on COLO 205 colon, in the experiment on HCT-116 colon, with K-562 leukemia, with KM12 colon and in the experiment on M14 melanoma was above 100 µM throughout. Besides, the TGI with MOLT-4 leukemia, with SF-268 CNS and in the experiment on UACC-62 melanoma was above 100 µM in each case.

For `CC[C@H](C)[C@H]1NC(=O)[C@@H](N[C@](C)(O)[C@@H](N)CC(C)C)[C@@H](C)OC(=O)[C@H](Cc2ccc(OC)cc2)N(C)C(=O)[C@@H]2CCCN2C(=O)[C@H](CC(C)C)NC(=O)[C@@H](C)C(=O)[C@H](C(C)C)OC(=O)C[C@@H]1O`, the GI50 is 0.241 µM with CAKI-1 renal; 0.0108 µM in the experiment on COLO 205 colon; 0.00608 µM in the experiment on HCT-116 colon; 0.0156 µM with K-562 leukemia; below 0.0108 µM in the experiment on KM12 colon; 0.0215 µM in the experiment with M14 melanoma. Besides, the GI50 was 0.0133 µM in the experiment with MOLT-4 leukemia, 0.0132 µM with SF-268 CNS and 0.0109 µM with UACC-62 melanoma. Further, the TGI in the experiment with CAKI-1 renal stood at 2.59 µM; in the experiment with COLO 205 colon, 0.073 µM; in the experiment with HCT-116 colon, 50 µM; in the experiment with K-562 leukemia, 1.8 µM; in the experiment on KM12 colon, 0.829 µM; with M14 melanoma it was 0.289 µM. Further, the TGI in the experiment with MOLT-4 leukemia worked out at 0.575 µM; in the experiment with SF-268 CNS, 0.348 µM; in the experiment on UACC-62 melanoma, 0.16 µM.

`CN(C)CCNC(=O)c1cc2ccccc2c2nc3ccccc3nc12`: the TGI with CAKI-1 renal was above 21.3 µM; in the experiment on COLO 205 colon it was above 100 µM; in the experiment with HCT-116 colon, 1.87 µM; with K-562 leukemia, 1.96 µM; in the experiment with KM12 colon, 2.89 µM; with MOLT-4 leukemia, 0.487 µM. The TGI in the experiment on SF-268 CNS stood at 2.02 µM; in the experiment on UACC-62 melanoma, 7.3 µM.

Take `CCCCCCCCCCCCCC(=O)O[C@H]1CC[C@H](NC(=O)[C@H](OC)[C@H](O)[C@@H](O)[C@H](O)/C=C/C(C)C)C(=O)NC1`: the TGI was 0.00374 µM and 0.0154 µM in the experiment on COLO 205 colon; 1.06 µM with HCT-116 colon; 11.8 µM and 15.4 µM with K-562 leukemia; 1.19 µM and 7.64 µM in the experiment with KM12 colon; 0.345 µM and 0.556 µM and 0.129 µM in the experiment with M14 melanoma; 16.9 µM and 14.5 µM in the experiment on MOLT-4 leukemia. The TGI in the experiment with SF-268 CNS is 18.8 µM and 22.5 µM; in the experiment on UACC-62 melanoma, 0.0143 µM and 0.045 µM.

Take `CCOC(C)C(/C=N/NC(N)=S)=NNC(N)=S` (configuration not stated): the TGI with CAKI-1 renal, in the experiment on COLO 205 colon, in the experiment on K-562 leukemia, in the experiment with KM12 colon, in the experiment on MOLT-4 leukemia and with SF-268 CNS was above 100 µM throughout. Also, the TGI in the experiment with SF-295 CNS and in the experiment with UACC-62 melanoma was above 100 µM in each case.

Turning to `CC(=O)N1N=C2/C(=C/c3ccccc3)CC(C)CC2C1c1ccccc1` (configuration not stated), the GI50 in the experiment on CAKI-1 renal is 19.1 µM; in the experiment on COLO 205 colon it was 16.5 µM; in the experiment on K-562 leukemia it was 4.29 µM; with KM12 colon, 12.4 µM; with MOLT-4 leukemia, 8.72 µM; in the experiment on SF-268 CNS, 14.8 µM. The GI50 with SF-295 CNS was 15.9 µM; with UACC-62 melanoma, 12.6 µM. Moreover, the TGI was 41.8 µM in the experiment with CAKI-1 renal; 45.6 µM in the experiment with COLO 205 colon; 20.7 µM with K-562 leukemia; 33.9 µM in the experiment on KM12 colon; 28.1 µM in the experiment on MOLT-4 leukemia; 30.6 µM in the experiment on SF-268 CNS. Further, the results for the TGI with SF-295 CNS and in the experiment with UACC-62 melanoma were 35.1 µM and 26 µM, respectively.

With `CCOC(=O)/C(O)=C(/c1n[nH]c(=O)c2ccccc12)[N+](=O)[O-]`, the TGI in the experiment with COLO 205 colon, with HCT-116 colon, in the experiment on K-562 leukemia, with KM12 colon, in the experiment on M14 melanoma and in the experiment on MOLT-4 leukemia was above 100 µM each time. The TGI in the experiment with SF-268 CNS, in the experiment with SF-295 CNS and in the experiment with UACC-62 melanoma was above 100 µM each time.
